How the values were obtained:
murine donor heart [1] = experiment: murine donor heart, 16 h of cold storage followed by ex vivo perfusion; settings: 50 μM, 60 minutes of reperfusion, N=8
Description: FIG. 2. […] N=8 at each time point.

murine donor heart [2] = experiment: murine donor heart, 16 h of cold storage followed by 24 h of heterotopic transplantation; type: in vivo; settings: 50 μM in storage, n=8
Experimental: FIG. 4. […] Donor heart was isolated and store with or without canrenone for 16 hr, then the donor hearts were heterotopic transplanted to receipt cervical region. max dp/dt (contraction) and min dp/dt (relaxation) were calculated by average the max/min dp/dt for 1 minute period after 24 hr of transplantation using Millar Catheter. *P<0.05, n=8.

pig donor heart = experiment: pig donor heart, 10 h of cold storage followed by ex vivo perfusion; settings: 50 μM in HTK; 10 h of cold storage on ice, 30 minutes of reperfusion ex vivo; N=4
Experimental: FIG. 5. […] Pig hearts were perfused with 1 L HTK solution after cross clamp. Addition 2 L of HTK with or without canrenone were perfused and stored for 10 hr on ice. Pig hearts were perfused in ex vivo system with blood and Krebs buffer (1:4, hemoglobin concentration: […]). max dp/dt (contraction) and min dp/dt (relaxation) were calculated by average the max/min dp/dt for 10 minute period after 30 minutes of reperfusion using Millar Catheter. *P<0.05, **P<0.01. N=4.

heart failure = settings: cited from earlier work
cardiomyocytes = settings: IR conditions; cited from earlier work
donor heart = donor heart function after 16 hr of cold storage followed by reperfusion (VPA)
Description: (§1) FIG. 7, panels A-C. […] Panels B and C.

Irg1 = Irg1 expression in cold-stored donor heart; settings: cold storage of donor heart, VPA treatment
Description: as §1

heart = settings: rats; cited from earlier work
[3] = large epidemiologic studies; cited from earlier work
[4] = tested on: mineralocorticoid receptor (MR); settings: cited from earlier work
[5] = tested on: heart, kidneys, lung and liver; settings: cited from earlier work
[6] = tested on: ischemia reperfusion (IR) rats; settings: cited from earlier work; for heart function: ischemia reperfusion (IR) rats

C[C@]12CCC(=O)C=C1C=C[C@@H]1[C@@H]2CC[C@@]2(C)[C@H]1CC[C@@]21CCC(=O)O1 [Canrenone, canrenone]
donor heart function, max dp/dt (contraction) and min dp/dt (relaxation) (murine donor heart [1]): improves murine donor heart function
donor heart function, max dp/dt (contraction) and min dp/dt (relaxation) (murine donor heart [2]): improve murine donor heart function
donor heart function, max dp/dt (contraction) and min dp/dt (relaxation) (pig donor heart): improve pig donor heart function

Cc1sc2c(c1C)C(c1ccc(Cl)cc1)=N[C@@H](CC(=O)OC(C)(C)C)c1nnc(C)n1-2 [JQ-1]
heart failure (heart failure): effectively halt heart failure
protection of cardiomyocytes (cardiomyocytes): may protect cardiomyocytes

CCCC(CCC)C(=O)O [VPA, valproic acid]
effect of VPA on donor heart function with Irg1 deletion (donor heart; Irg1 deletion, 16 hr of cold storage followed by reperfusion): Irg1 deletion reduce the protective effect
donor heart ischemic tolerance (donor heart; cold storage of donor heart): improve donor heart ischemic tolerance
Irg1 expression (Irg1): further stimulates Irg1 upregulation
protection of the heart against AMI injury (heart): protects the heart against AMI injury
incidence of stroke and AMI [3]: reduce the incidence of stroke and AMI
acetylation of the mineralocorticoid receptor (MR) [4]: affect the acetylation of the mineralocorticoid receptor
fibrosis [5]: reduce fibrosis

CC(=O)O [acetate]
heart function [6]: improve heart function

CCCCCCCC(=O)O [octanoate]
heart functional recovery ([6]; 160 mg/kg i.p. injected once at the time of reperfusion): significant heart functional recovery
heart function [6]: improve heart function

Reference: US20230241076A1, “HISTONE-ACETYLATION-MODULATING AGENTS FOR THE TREATMENT AND PREVENTION OF ORGAN INJURY” (The Regents of the University of Michigan, priority 2020, published 2023)
